Here are results for two compounds from US9096539B2, “Substituted 4,5-dihydro-2H-benzo[e]indazole-9-carboxylates for the treatment of diabetes and related disorders” (Council of Scientific & Industrial Research, priority 2012, dated 2015).

The test concerns sucrose loaded normoglycaemic rats. The test is described as follows: Antihyperglycaemic activity on sucrose loaded normoglycaemic rats (SLM). The format is in vivo, rat. As to conditions: for Blood Glucose Profile 0 min: 0 min (fasting baseline); for Blood Glucose Profile 0 min / Blood Glucose Profile 30 min / Blood Glucose Profile 60 min / Blood Glucose Profile 90 min / Blood Glucose Profile 120 min / % Antihyperglycaemic activity SLM: sucrose loaded normoglycaemic rats, compounds 100 mg/kg, Januvia 50 mg/kg; for Blood Glucose Profile 0 min / Blood Glucose Profile 30 min / Blood Glucose Profile 60 min / Blood Glucose Profile 90 min / Blood Glucose Profile 120 min: mean ± S.E.; for Blood Glucose Profile 30 min: 30 min post sucrose; for Blood Glucose Profile 60 min: 60 min post sucrose; for Blood Glucose Profile 90 min: 90 min post sucrose; for Blood Glucose Profile 120 min: 120 min post sucrose; for % Antihyperglycaemic activity SLM: AUC vs control, oral; for improvement in glucose tolerance: sucrose loaded normoglycemic rats, 100 mg/kg b.w., result in words. The procedure:
The test compounds and standard antidiabetic drug Januvia were prepared in 1.0% freshly prepared Gum acacia.
Assessment of Test Compounds for Antihyperglycaemic Activity on Sucrose Loaded Normoglycaemic Rats—
In order to search towards the antidiabetic activity, synthetic compounds were preliminary evaluated for their effect on glucose tolerance in normal rats. It is an indirect effect of measuring antihyperglycaemic activity. Male albino rats of Wistar strain of body weight 160±20 g were selected for this study. The blood glucose of each animal was checked by glucometer using glucostrips (Accu-check) after 16 hours starvation. Animals showing blood glucose between 60 to 80 mg/dl (3.33 to 4.44 mM) were divided into groups of five to six animals in each. Rats of experimental group were administered suspension of the desired test compound orally (made in 1.0% gum acacia). The standard dose decided for Synthetic compounds is 100 mg/kg body weight. Animals of control group were given an equal amount of 1.0% gum acacia. A sucrose load (10.0 g/kg) was given to each animal orally exactly after 30 min post administration of the test sample/vehicle. Blood glucose profile of each rat was again determined at 30, 60, 90 and 120 min post administration of sucrose by glucometer. Food but not water was withheld from the cages during the course of experimentation. Quantitative glucose tolerance of each animal was calculated by area under curve (AUC) method using Prism Software. Comparing the AUC of experimental and control groups determined the percentage antihyperglycaemic activity. Statistical comparison was made by Dunnett's test.
Quantitative glucose tolerance of each animal was calculated by the area under the curve (AUC) method using Prism Software. The area under the curve of the control group and the experimental group was compared to determine the percent antihyperglycaemic activity. Statistical comparisons were performed by one-way analysis of variance (ANOVA), followed by Dunnett's multiple range test (DMRT). The results were considered statistically significant if the ‘p’ values were 0.05 or less. Results were expressed as mean±SEM.

For the compound `COC(=O)c1c(SC)cc(-c2ccc(C)cc2)c2c1-c1cn(-c3ccccc3)nc1CC2` [compound 5, methyl 8-(methylthio)-2-phenyl-6-p-tolyl-4,5-dihydro-2H-benzo[e]indazole-9-carboxylate], the “Blood Glucose Profile 0 min” value came to 66.2 ± 3.05 mg/dL, the “Blood Glucose Profile 30 min” value was found to be 107.4 ± 7.76 mg/dL, the “Blood Glucose Profile 60 min” value was 104.8 ± 5.12 mg/dL and the “Blood Glucose Profile 90 min” value was 108.3 ± 3.59 mg/dL. In addition, the “Blood Glucose Profile 120 min” value is 109.8 ± 7.86 mg/dL, the “% Antihyperglycaemic activity SLM” value was determined as 35.8% and the “improvement in glucose tolerance” value is recorded as “significant improvement in glucose tolerance”.
For `COC(=O)c1c(SC)cc(-c2cccc3ccccc23)c2c1-c1cn(-c3ccccc3)nc1CC2` [compound 6, methyl 8-(methylthio)-6-(naphthalen-1-yl)-2-phenyl-4,5-dihydro-2H-benzo[e]indazole-9-carboxylate], the “Blood Glucose Profile 0 min” value amounted to 66.2 ± 2.63 mg/dL, the “Blood Glucose Profile 30 min” value was determined as 120.0 ± 7.30 mg/dL, the “Blood Glucose Profile 60 min” value was found to be 111.2 ± 7.30 mg/dL and the “Blood Glucose Profile 90 min” value came to 110.4 ± 4.73 mg/dL. The “Blood Glucose Profile 120 min” value turned out to be 107.4 ± 4.95 mg/dL, the “% Antihyperglycaemic activity SLM” value amounted to 23.5% and the “improvement in glucose tolerance” value is recorded as “significant improvement in glucose tolerance”.
